Data set [1] has as its system colorectal cancer PDX harboring KRAS mutation. The data set is described as follows: Patient-derived xenograft (PDX). The conditions noted are these: mouse, in vivo. More on the design: species or system NOD-SCID mice. From the text: Figure S7. […] Tumor volume of (c). e Tumor weight of (c). f, h Changes of body weight after drug administration in melanoma and CRC PDX model. g, i HE staining of liver and spleen in melanoma PDX model. Scale bars: 200 μm.

A further data set concerns B16F10 CDX. As to the kind of experiment: B16F10 cell xenograft. The format is in vivo, C57BL-6J mice. From the text: Decrease of phospho-MEK1/2 was only observed in erianin and erianin/vemurafenib dual-therapy group, and even all erianin, erianin/vemurafenib dual-therapy, cobimetinib, and cobimetinib/vemurafenib dual-therapy group inhibited phosphorylation of ERK1/2 (Fig. 7d). […] Several clinical studies reveal that immune checkpoint therapies PD-1/PD-L1 synergistically promote RAF inhibitor in treatment of melanoma. Therefore, we checked the immune response involved in antitumor effect of erianin in vivo. After immunosuppression by hydrocortisone (50 mg/kg) for 1 week, B16F10 cell was implanted into C57BL-6J mice followed by vehicle or drug treatment. […]
Fig. 7 Erianin exerts antitumor efficacy in melanoma and colorectal cancer in vivo. a Tumor pharmacodynamic assay was performed in tumor-bearing NPG mice (tumor has been passaged from melanoma patient to mice for three generations). […] Tumor volume was measured once a week. […] One-way ANOVA test. ***p < 0.001. e Antitumor efficacy of erianin with or without immunity using B16F10 cell xenograft in C57BL-6J mouse. f, g Trend of tumor volume over time and tumor weight was measured after treatment on the last day of the study.
Peripheral blood or spleen lymphocytes (CD8a^+, CD4^+, and NK cell) in B16F10 CDX model after treated with erianin were quantified using BD FACSAria^TM III cell sorter. […]

Another data set concerns the target T1, BRAF WT (381-end) (Homo sapiens, UniProt P15056).
T1 construct: purchased Signal Chem B08-11BG
The data set is described as follows: In vitro kinase assay (western blotting). The following applies: 12.5 to 50 nM. The class given is biochemical. How it is done: (§1) After incubated with 100–400 μM ATP in kinase assay buffer for 30 min, the phosphorylation of the substrate/total substrate protein was detected by western blotting. For ADP-glo kinase assay, unconsumed ATP was depleted with the addition of ADP-Glo™. Followed by kinase detection reagent to convert ADP to ATP, consumption of ATP was detected to evaluate the kinase activity. For more details, refer to the manufacturer’s instructions of ADP-Glo™ Kinase Assay.
(§2) Figure S2. […] Enzyme kinetics parameters including Vmax and Km were obtained using the Michaelis double-reciprocal curve equation.
Background: A western blot detects proteins with antibodies after separation by electrophoresis.

The target in the next data set is T2, BRAF V600E (416-end) (Homo sapiens, UniProt P15056, V600E).
T2 construct: purchased Signal Chem B08-12G
T2 sequence (P15056 416-766 V600E): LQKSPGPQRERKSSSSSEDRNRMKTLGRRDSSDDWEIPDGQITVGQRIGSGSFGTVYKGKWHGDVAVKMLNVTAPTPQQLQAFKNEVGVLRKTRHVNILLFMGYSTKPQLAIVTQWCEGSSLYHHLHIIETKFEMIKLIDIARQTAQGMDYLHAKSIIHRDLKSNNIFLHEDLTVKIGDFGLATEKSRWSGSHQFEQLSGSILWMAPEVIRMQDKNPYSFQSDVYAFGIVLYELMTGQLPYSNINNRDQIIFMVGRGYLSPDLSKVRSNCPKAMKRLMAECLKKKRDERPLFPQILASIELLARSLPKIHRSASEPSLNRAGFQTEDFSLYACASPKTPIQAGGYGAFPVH
The data set is described as follows: In vitro kinase assay (western blotting). The class given is biochemical. The conditions noted are these: 12.5 to 50 nM. How it is done: as §1, §2

The subject of another data set is melanoma PDX. The data set is described as follows: Patient-derived xenograft (PDX). The class given is in vivo. How it is done:
Fig. 7 Erianin exerts antitumor efficacy in melanoma and colorectal cancer in vivo. a Tumor pharmacodynamic assay was performed in tumor-bearing NPG mice (tumor has been passaged from melanoma patient to mice for three generations). The photographs show tumors from melanoma PDX mice treated with vehicle or drugs. b The effect of erianin on the volume of PDX tumors over time (within 78 days) was plotted. Vehicle, erianin (50 mg/kg, once a day), vemurafenib (50 mg/kg, once a day), erianin and vemurafenib combination therapy, cobimetinib (5 mg/kg, twice a week) or vemurafenib and cobimetinib combination therapy (once a day and twice a week, respectively) were administered by oral gavage, n = 8 in each group. Tumor volume was measured once a week. […] Scale bars: 20 μm. One-way ANOVA test. ***p < 0.001. e Antitumor efficacy of erianin with or without immunity using B16F10 cell xenograft in C57BL-6J mouse. f, g Trend of tumor volume over time and tumor weight was measured after treatment on the last day of the study.
In general terms: In xenograft studies the graft and the host belong to different species.

The subject of data set [2] is normal human dermal fibroblasts (NHDF). The data set is described as follows: Cytotoxicity MTT assay. The format is cell-based. The conditions noted are these: 0, 12.5, 25, 50 nM. The procedure:
(§3) The synergism and antagonism (CI value) were determined and analyzed using CompuSyn 1.0.
(§4) For cytotoxicity test, normal NHDF (5000 cells/well) and NHEM cell line (3000 cells/well) were planted into 96-well plates. For cell proliferation assay, A375 (1500 cells/well), SK-MEL-28 (3000 cells/well), SK-MEL-2 (4000 cells/well), and HCT116 (1500 cells/well) were planted into 96-well plates, determined concentration of drug was added after culture for 24 h. The viability of the cells was detected within 72 h using MTT solution (5 mg/mL). The absorbance at 570/490 nm was quantified by the use of the microplate reader.
In general terms: Tetrazolium assays rely on reduction of a dye to a coloured formazan, in cell work by metabolically active cells.

In data set [3] the test system is normal human epidermal melanocytes (NHEM). The data set is described as follows: Cytotoxicity MTT assay. The format is cell-based. The conditions noted are these: 0, 12.5, 25, 50 nM. The procedure: as §3, §4
For another data set, the target named is T3, BRAF (Homo sapiens, UniProt P15056, V600E).
T3 construct: endogenous in cells; host or cells: A375
T3 sequence (P15056 whole entry V600E): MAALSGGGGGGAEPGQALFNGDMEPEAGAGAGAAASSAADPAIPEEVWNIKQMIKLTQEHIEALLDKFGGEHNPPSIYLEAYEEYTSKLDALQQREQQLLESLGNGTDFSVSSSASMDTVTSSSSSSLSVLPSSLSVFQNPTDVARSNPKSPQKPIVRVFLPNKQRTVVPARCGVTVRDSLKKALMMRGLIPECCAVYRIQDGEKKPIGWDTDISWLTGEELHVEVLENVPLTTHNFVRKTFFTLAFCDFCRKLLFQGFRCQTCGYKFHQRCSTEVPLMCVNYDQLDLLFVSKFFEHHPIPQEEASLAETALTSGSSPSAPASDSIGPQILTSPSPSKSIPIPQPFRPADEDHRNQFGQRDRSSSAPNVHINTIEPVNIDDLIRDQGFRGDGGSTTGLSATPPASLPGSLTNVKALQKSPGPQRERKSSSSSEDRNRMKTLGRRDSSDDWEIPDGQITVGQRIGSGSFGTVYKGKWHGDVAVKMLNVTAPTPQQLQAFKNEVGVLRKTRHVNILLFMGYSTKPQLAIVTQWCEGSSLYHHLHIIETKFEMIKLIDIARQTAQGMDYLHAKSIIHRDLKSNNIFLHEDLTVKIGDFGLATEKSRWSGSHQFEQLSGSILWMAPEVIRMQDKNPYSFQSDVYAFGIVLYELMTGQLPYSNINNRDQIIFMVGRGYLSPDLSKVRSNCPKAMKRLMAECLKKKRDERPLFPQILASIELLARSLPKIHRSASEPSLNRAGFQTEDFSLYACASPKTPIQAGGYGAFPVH
As to the kind of experiment: Erianin-conjugated Sepharose 4B bead pull-down assay. The format is binding. The conditions noted are these: in vitro and ex vivo (A375 cell lysate). How it is done:
(§5) Cell lysate (500 μg) or recombinant proteins (200 ng) were incubated with erianin-CNBr activated sepharose 4B overnight at 4 °C, and the protein-beads complex was washed four times by the use of rotational incubator to remove non-specific binding. Western blotting was developed to check the pull-down bands.

The next data set addresses MEK2 (Homo sapiens, UniProt P36507). As to the kind of experiment: Luminescent ADP detection (ADP-glo kinase) assay. The format is biochemical. The following applies: 1–100 nM. How it is done:
as §1

Data set [4] concerns MAPK signaling pathway (phospho-CRAF, phospho-MEK1/2, phospho-ERK1/2). The data set is described as follows: Western blotting of MAPK signaling pathway in cells. The conditions noted are these: both BRAF V600E and RAS mutant cell lines, 24 h.
Text: Data were shown as means ± S.D. of three independent experiments. The asterisks (*p < 0.05, **p < 0.01, ***p < 0.001) indicate a significant difference in the expression of phosphorylation of ERK1 or ERK2 vs total ERK1 or ERK2 in control and erianin-treated group. g The luminescent ADP detection assay was developed to detect the luminescence signal of ATP-to-ADP using the same concentration kinases and substrates described in above kinase assay.
Protein was quantified using a BCA assay kit and then western blotting was conducted.
The next data set has as its system MEK1/2. As to the kind of experiment: Erianin-conjugated Sepharose 4B bead pull-down assay. The class given is binding, human. The conditions noted are these: in vitro and ex vivo (A375 cell lysate). How it is done: 293 T cells were transfected with plasmids of pcDNA3.1-3×Flag-C-MAP2K1/MAP2K1 (K97A, M146A), MAP2K2/MAP2K1 (K101A, M150A), or CRAF/CRAF (K375A). […]
as §5

The text below walks through data of publication PMC9986241 (Signal Transduction and Targeted Therapy, 2023).

Chain of MEK2 (P36507 whole entry): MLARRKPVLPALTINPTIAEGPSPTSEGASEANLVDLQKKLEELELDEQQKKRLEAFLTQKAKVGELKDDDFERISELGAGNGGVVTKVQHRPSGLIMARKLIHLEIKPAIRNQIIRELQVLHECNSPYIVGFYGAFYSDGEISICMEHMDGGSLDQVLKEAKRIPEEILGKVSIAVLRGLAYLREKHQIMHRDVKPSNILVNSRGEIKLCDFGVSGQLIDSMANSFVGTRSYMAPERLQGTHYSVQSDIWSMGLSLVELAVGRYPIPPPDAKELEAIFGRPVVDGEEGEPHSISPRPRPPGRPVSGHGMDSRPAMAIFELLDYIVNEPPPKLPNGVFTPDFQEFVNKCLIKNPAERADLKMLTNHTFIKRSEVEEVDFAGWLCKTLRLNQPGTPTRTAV
T1 sequence (P15056 381-766 limits assumed): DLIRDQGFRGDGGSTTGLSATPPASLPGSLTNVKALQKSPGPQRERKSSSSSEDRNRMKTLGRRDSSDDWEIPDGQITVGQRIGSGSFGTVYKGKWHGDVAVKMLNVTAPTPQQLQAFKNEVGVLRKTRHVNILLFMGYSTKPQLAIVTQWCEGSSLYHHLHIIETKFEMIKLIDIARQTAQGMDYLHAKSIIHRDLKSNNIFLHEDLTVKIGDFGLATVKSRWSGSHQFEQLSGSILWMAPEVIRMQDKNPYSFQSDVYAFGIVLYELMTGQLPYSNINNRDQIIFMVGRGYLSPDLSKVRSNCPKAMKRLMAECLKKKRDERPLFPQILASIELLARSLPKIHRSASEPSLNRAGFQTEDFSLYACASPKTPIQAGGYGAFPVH

Regarding `COc1ccc(CCc2cc(OC)c(OC)c(OC)c2)cc1O` [Erianin], the “toxicity in body weight” value in [1] is “low toxicity”. The values for the tumor growth entry (in data set [1]; in the data set with B16F10 CDX (monotherapy)) were “restrained tumor growth significantly” and “inhibited tumor growth”, respectively. Moreover, the “CD8a+, CD4+ T cells, and NK cells” value with B16F10 CDX (flow cytometry after erianin treatment) was “increased significantly”. Further, the “BRAF WT kinase activity” value at BRAF WT (381-end) was “could not suppress”. The “BRAF V600E kinase activity” value at BRAF V600E (416-end) is “could not suppress”. The body weight entry with melanoma PDX (50 mg/kg once a day, oral gavage) was “without significant changes”. The “toxicity sign (HE staining)” value in the data set on melanoma PDX (HE staining of liver and spleen) was “neither erianin group nor erianin-vemurafenib combination therapy showed toxicity sign”. In addition, the tumor volume entry in the data set on melanoma PDX (oral gavage, erianin, vemurafenib 50 mg/kg once a day, cobimetinib 5 mg/kg twice a week, within 78 days) was “significant decrease”. In addition, the cytotoxicity entry in [2] and in data set [3] was “no toxicity” throughout. Further, the binding in pull-down result on BRAF and in the data set on MEK1/2 was “directly bound” throughout. Moreover, on MEK2, the “kinase activity (luminescence signal)” value is “inhibited the kinase activity”. The “constitutive activation of MAPK signaling pathway” value in data set [4] is given as “inhibited constitutive activation of MAPK signaling pathway”.
